Each structure is given as a SMILES string. Where “and” joins values, the source holds several entries; their conditions need not be identical. Equal entries are not always repeated. Calls of active or inactive are those of the source.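 The calls were made as follows: active = compounds giving half or more protection of infected cells from virus-caused growth loss, again on retest; inactive = the rest.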 Where a SMILES comes first, the peptide text is derived from it. The star is where a group is joined. Cbz = O=C(OCc1ccccc1)*; Boc = CC(C)(C)OC(=O)*; tBu = CC(C)(C)*

The subject of this test is CEM cells HIV-1 protection, formazan growth assay. Briefly: NCI AIDS Antiviral Assay. Conditions: for IC50: measured here: growth of uninfected CEM cells. In a few lines: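 Screen of anti-HIV-1 activity in human CEM cells using a formazan-based growth measurement at five drug concentrations. Hits with 50% or greater protection were repeated, and confirmation required reproducible complete protection.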

As to `CC1(C)Oc2ccc3c(=O)c4ccccc4oc3c2C1C(=O)O` (stereo not given), the EC50 was greater than 200 µM and the IC50 was greater than 200 µM.

In the case of `COC(=O)c1c2c(cc3c1CC1(Cc4cc5c(c(C=O)c4C1)CCCC5)C3)CCCC2` (stereo not given), the EC50 was greater than 200 µM and the IC50 amounted to 24.5 µM.

Turning to `Cc1[nH]c(=O)[nH]c(=O)c1CCSSCCc1c(C)[nH]c(=O)[nH]c1=O`, the EC50 was greater than 200 µM and the 50% inhibitory concentration (IC50) was greater than 200 µM.

As for `O=C(CC1Sc2ccccc2NC1=O)Nc1ccc(Cl)cc1` (stereo not given), the EC50 is greater than 107 µM and the 50% inhibitory concentration (IC50) was greater than 107 µM.

`CCOC(=O)C(=O)Nc1ccccc1C(C)C`: the EC50 was greater than 151 µM and the IC50 was greater than 151 µM.

As for `CC(C)CC(N)C(=O)NC(CC(=O)O)C(=O)NC(CCCCN)C(=O)NC(C)C(=O)NC(CO)C(=O)NC(Cc1ccc(O)cc1)C(=O)NC(CO)C(=O)NC(C(=O)NC(CC(N)=O)C(=O)NC(Cc1cnc[nH]1)C(=O)NC(CC(C)C)C(N)=O)C(C)O` (stereo not given) (H-LDKASYSTNHL-NH2; configuration not given here), the EC50 is greater than 50.1 µM and the IC50 is greater than 50.1 µM.

On to `N[C@@H]1c2c(Br)sc(Br)c2C(=O)[C@H]1Br`, for which the EC50 is greater than 200 µM; the concentration for half-maximal inhibition (IC50) is 23.4 µM and 26.9 µM.

For the compound `O=c1c2c(-c3ccccc3)c3ccccc3nc2cnn1-c1ccccc1`, the EC50 is greater than 79.4 µM and the half-inhibitory concentration (IC50) was greater than 79.4 µM.

`Cc1cn(CCCCCOC(=O)NC(CCCN=C(N)N)C(=O)O)c(=O)[nH]c1=O` (stereo not given): the EC50 was greater than 200 µM and the IC50 was determined as 18.2 µM.

Regarding `CCN(CC)C(=O)c1cc(=O)c(C)c2oc3c(C)c(O)c(N)c(C(=O)N(CC)CC)c3nc1-2`, the EC50 is greater than 200 µM and the 50% inhibitory concentration (IC50) was 110 µM.

For `COc1cc2c(oc(=O)c3c4occc4cc(OC)c23)c2cccc(OCc3ccccc3)c12`, the EC50 is greater than 1.15 µM and the half-inhibitory concentration (IC50) was greater than 1.15 µM.

For the compound `c1cc(C2N3CCCN2CC3)ccn1` (stereo not given), the outcome was inactive.

As for `O=c1c(NO)c([N+](=O)[O-])cnn1-c1ccccc1`, the EC50 was greater than 89.1 µM and the half-inhibitory concentration (IC50) was determined as 0.316 µM.

Take `Cc1ccc(S(=O)(=O)N[C@H](C(=O)O)c2ccccc2)cc1`: the outcome was inactive.

Turning to `CC[C@H]1CN2CCc3cc(OC)c(OC)cc3[C@@H]2C[C@@H]1C[C@H]1NCCc2cc(O)c(OC)cc21`, the outcome was inactive.

As to `Cn1c(-c2ccc(/C=N/NC(N)=NCCCCCCN=C(N)N/N=C/c3ccc(-c4c[n+]5ccccc5n4C)cc3)cc2)c[n+]2ccccc12`, the EC50 was 2.24 µM and the IC50 was 30.2 µM.

As to `O=C1CN(c2cccc(Cl)c2)C(=O)CN1NCNN1CC(=O)N(c2cccc(Cl)c2)CC1=O`, the EC50 was greater than 200 µM and the IC50 was greater than 200 µM.

With `O=C(/C=C/c1ccc(O)c(O)c1)OC1CC(O)(C(=O)O)CC(O)C1O` (stereo not given), the EC50 was greater than 200 µM and the IC50 came to 91.2 µM.

For the compound `CN(C)CCNC(=O)c1ccc(Cl)c2c(Nc3ccc(S(=O)(=O)N=C(N)N)cc3)c3ccccc3nc12`, the result was inactive.

For `C#CC1(O)CCC2C3CCc4cc(Oc5nc(F)nc(-c6c7ccccc7c7sc8ccccc8n67)n5)ccc4C3CC[C@@]21C` (stereo not given in full), the EC50 was greater than 200 µM and the IC50 turned out to be 115 µM.

On to `CCOC(=O)/C(=C\c1ccc(N(C)C)cc1)C(C)=O`, for which the EC50 is greater than 501 µM and the IC50 was found to be 162 µM.

For `COc1cccc(/C=C2/Sc3scc(-c4ccccc4)[n+]3C2=O)c1O`, the EC50 is greater than 200 µM and the half-maximal inhibitory concentration (IC50) came out at 11.7 µM.

On to `O=C(O)C1CC(O)CN1S(=O)(=O)Cc1ccccc1` (stereo not given), for which the EC50 is greater than 200 µM and the IC50 was greater than 200 µM.

For the compound `Cc1ccnc(NC(=S)Nc2ccc([N+](=O)[O-])cc2)c1`, the EC50 was greater than 200 µM and the 50% inhibitory concentration (IC50) was greater than 200 µM.

Turning to `O=C1c2ccccc2C(=O)c2sc(Nc3ccc([N+](=O)[O-])cc3)nc21`, the EC50 was greater than 10.7 µM and the concentration for half-maximal inhibition (IC50) was greater than 10.7 µM.

Take `CC(C)(NO)/C(=N\O)c1ccccc1`: the EC50 is greater than 200 µM and the half-inhibitory concentration (IC50) is greater than 200 µM.

In the case of `N#CC1(O)CCCCCCCCCCC1`, the EC50 was greater than 200 µM and the half-maximal inhibitory concentration (IC50) was greater than 200 µM.

As to `CCCCCCN(CCCCCC)C(F)(F)C(=O)Nc1ccc(S(=O)(=O)c2ccc(NC(=O)C(F)(F)N(CCCCCC)CCCCCC)cc2)cc1`, the EC50 is greater than 100 µM and the 50% inhibitory concentration (IC50) was found to be 5.13 µM.

As for `COC(=O)c1c(-c2ccccc2)c2sc3ccccc3n2c1N`, the EC50 is greater than 200 µM and the concentration for half-maximal inhibition (IC50) was greater than 200 µM.

In the case of `COC(=O)C1(CCC(=O)N(C)c2ccccc2)NNC2C(=O)N(c3ccccc3)C(=O)C21` (stereo not given), the EC50 is greater than 200 µM and the concentration for half-maximal inhibition (IC50) is greater than 200 µM.

As to `CC1CCC2CC1NC(=O)CCOCCC(=O)NC2(C)C` (stereo not given), the EC50 was greater than 45.7 µM and the concentration for half-maximal inhibition (IC50) was greater than 45.7 µM.

As to `O=C(Cn1c(=O)oc2ccc(C(=O)c3ccc(F)cc3)cc21)c1ccccc1`, the EC50 was greater than 200 µM and the IC50 stood at 123 µM.

Consider `CC(CO)CS(=O)(=O)O` (stereo not given), for which the EC50 is greater than 200 µM and the IC50 is greater than 200 µM.

For `N#C/C(=C\c1ccccc1)c1cccc(Br)c1`, the EC50 was greater than 200 µM and the 50% inhibitory concentration (IC50) is greater than 200 µM.

Take `OCC1CC(F)C(n2cnc3c(I)ncnc32)O1` (stereo not given): the EC50 is greater than 138 µM and the IC50 turned out to be 63.1 µM.

In the case of `O=C(C(c1ccccc1)c1ccccc1)N1CCN(c2ccccn2)CC1`, the EC50 is greater than 89.1 µM and the IC50 amounted to 29.5 µM.

On to `Cn1c(=O)cc(CNc2ccc(-c3ccccc3)cc2)c2ccccc21`, for which the EC50 was greater than 200 µM and the IC50 stood at 75.9 µM.

Regarding `CC(=O)O[C@H]1CCC2[C@@H]3CCC4=C(O)c5nocc5C[C@]4(C)C3CC[C@@]21C` (stereo not given in full), the EC50 was greater than 70.8 µM.

Consider `O=C(CC(=O)C1CCOC1=O)C(=O)Nc1ccc(Cl)cc1Cl` (stereo not given), for which the outcome was inactive.

`c1cc(CSP234N5CCN2CCN3CCN4CC5)cc(CSP234N5CCN2CCN3CCN4CC5)c1`: the EC50 is greater than 100 µM and the half-maximal inhibitory concentration (IC50) is 25.1 µM.

Consider `CC(C)CC(C#N)C(N)=O` (stereo not given), for which the EC50 is greater than 200 µM and the IC50 is greater than 200 µM.

As to `O=C(C=Nc1ccccc1C(=O)[O-])c1cccs1.O=C(C=Nc1ccccc1C(=O)[O-])c1cccs1.[Cu+2]`, the outcome was inactive.

On to `CC(=O)Oc1cccc2c1C(=O)C(Br)(Br)CCC2`, for which the result was inactive.

As for `O=c1[nH]c(=O)n(C2CC(O)C(CO)O2)c2ncncc12` (stereo not given), the EC50 is greater than 200 µM and the half-inhibitory concentration (IC50) was greater than 200 µM.

Take `CN(C)c1ccc(-n2cccc2)cc1`: the EC50 was greater than 200 µM and the IC50 was greater than 200 µM.

As to `Cc1cc(CO)c(O)c(CN(CC(=O)O)CC(=O)O)c1`, the EC50 is greater than 200 µM and the IC50 was 141 µM.

Consider `O=[N+]([O-])c1ccc(N=NN2CCCC2)cc1`, for which the EC50 was greater than 200 µM and the IC50 was 18.6 µM.

For `[O-]/[N+]1=[N+](\[O-])c2ccccc2COCc2ccccc21`, the outcome was inactive.

`O=C1C=C(Nc2ccc(Cl)cc2Cl)c2ccccc2C1=O`: the EC50 was greater than 1.7 µM and the IC50 was greater than 1.7 µM.

Turning to `Cc1cc(N=O)cc(C)c1O`, the EC50 is greater than 200 µM and the IC50 stood at 5.13 µM.

Take `O=C(Cc1nc2ccc(C(=O)c3ccccc3)cc2[nH]c1=O)C(=O)Nc1ccc(Br)cc1`: the EC50 is greater than 14.8 µM and the 50% inhibitory concentration (IC50) was greater than 14.8 µM.

For `COC1=CC2(c3ccccc3)C(=CC1=O)CCN2C(=O)c1ccccc1` (stereo not given), the outcome was inactive.

Take `O=c1c(-c2ccccc2)nc2ccccc2n1CC1CCCN2CCCC[C@H]12` (stereo not given in full): the EC50 was greater than 200 µM and the half-inhibitory concentration (IC50) worked out at 39.8 µM.

On to `N#C/C(=C\c1cc(Br)c(O)c(Br)c1)c1ccccn1`, for which the EC50 was greater than 200 µM and the half-inhibitory concentration (IC50) turned out to be 31.6 µM.

`Cn1cc2ccccc2c1-c1nc(N)nc(F)n1`: the EC50 is greater than 107 µM and the half-maximal inhibitory concentration (IC50) is 64.6 µM.

In the case of `O=[N+]([O-])c1ccc(N=Cc2ccc(O)cc2)cc1`, the EC50 was greater than 200 µM and the IC50 was 10 µM.

As for `O=C1CC2(CCC3=C(O2)c2ccccc2NC(=O)C3)C(=O)c2ccccc2N1` (stereo not given), the EC50 was greater than 69.2 µM and the half-inhibitory concentration (IC50) was greater than 69.2 µM.

Consider `CCCc1cc(=O)oc2c3c(cc(OC)c12)O[C@H](C)C(C)[C@H]3O` (stereo not given in full), for which the EC50 was greater than 200 µM and the IC50 was 51.3 µM.

As for `CC(OC(C)(C)C)C(NC(=O)C(CCCCNC(=O)OC(C)(C)C)NC(=O)C(Cc1c[nH]c2ccccc12)NC(=O)C(Cc1ccccc1)NC(=O)OCc1ccccc1)C(=O)NC(Cc1ccccc1)C(=O)O` (stereo not given) (Cbz-FWK(Boc)T(tBu)F-OH; configuration not given here), the EC50 was greater than 200 µM and the IC50 was determined as 35.5 µM.

Regarding `Cc1c2sc3ccccc3[nH]c2nc2[nH]c3ccccc3sc12`, the EC50 was greater than 38 µM and the IC50 stood at 14.8 µM.

In the case of `CN(C)c1ccc(-c2nn(C)c3nc(=O)n(C)c(=O)c-3[n+]2[O-])cc1`, the EC50 is greater than 200 µM and the IC50 turned out to be 0.562 µM.

With `COC(=O)c1cc2c(c(C(=O)OC)c1O)C(=O)C=CC2=O`, the EC50 was greater than 25.1 µM and the IC50 was 6.61 µM.

For the compound `O=S(/C=C/C=C/S(=O)(=O)c1ccccc1)c1ccccc1` (stereo not given), the EC50 is greater than 200 µM and the IC50 was found to be 0.977 µM.

As to `CN(C)CC/C=C1\c2ccccc2CN(C)c2ccccc21`, the EC50 is greater than 200 µM and the IC50 is 33.1 µM.

Consider `CN1C(CCl)Nc2cc(Cl)c(S(N)(=O)=O)cc2S1(=O)=O` (stereo not given), for which the EC50 is greater than 363 µM and the IC50 turned out to be 64.6 µM.

As for `O=c1c2ccccc2nc(-c2ccccc2)n1NC(=S)Nc1ccccc1`, the EC50 was greater than 135 µM and the IC50 is 112 µM.

Consider `Cc1ccc(C(=O)N(Cc2ccccc2)Cc2ccccc2)cc1N=NN(C)C`, for which the EC50 was greater than 9.77 µM and the IC50 is greater than 9.77 µM.

As to `C/C(=N\N(C)C)C(CN(C)C)C(c1ccccc1)c1c(O)c2ccccc2oc1=O` (stereo not given), the EC50 was greater than 100 µM and the IC50 came out at 91.2 µM.

With `COC(=O)c1ccccc1C1CN=NC12Cc1cc(C)c(C)cc1C2=O` (stereo not given), the EC50 was greater than 138 µM and the 50% inhibitory concentration (IC50) was greater than 138 µM.

In the case of `O=[N+]([O-])c1cccc(S(=O)(=O)SSS(=O)(=O)c2cccc([N+](=O)[O-])c2)c1`, the EC50 was greater than 40.7 µM and the half-inhibitory concentration (IC50) is greater than 40.7 µM.

The values are drawn from PubChem BioAssay AID179 (DTP/NCI, 2004).
